Values after ≈ are worked out from the molar mass of the structure shown.
Assays:
Aphidius rhopalosiphi = settings: not reported
Daphnia magna = settings: chronic/long-term; duration: 21 days
Rattus norvegicus = settings: for NOAEL: body weight
Cyprinus carpio = settings: acute; duration: 96 hours; mortality
Apis mellifera = settings: acute; duration: 48 hours; dermal; mortality
Oncorhynchus mykiss = settings: chronic/long-term; duration: 35 days; growth

## O=C(Nc1ccc(F)cc1F)c1cccnc1Oc1cccc(C(F)(F)F)c1 [Diflufenican]
Aphidius rhopalosiphi; mortality
  LEL: 188 g/ha
Aphidius rhopalosiphi; reproduction
  LEL: 188 g/ha
Tagia sp.; acute, duration: 14 days, mortality
  LC50: > 1000 mg/kg
Tagia sp.; chronic/long-term, reproduction
  NOEC: 1000 mg/kg
Daphnia magna
  NOEC: 0.052 mg/L
Rattus norvegicus; acute, oral, mortality
  LD50: > 5000 mg/kg
Rattus norvegicus; chronic, duration: 2 years
  NOAEL: 23.3 mg/kg-day
Rattus norvegicus; reproduction developmental, M
  NOAEL: 35.5 mg/kg-day
Rattus norvegicus; subchronic, duration: 13 weeks, oral
  NOAEL: 19.5 mg/kg-day
Cyprinus carpio
  LC50: 0.0985 µg/mL (≈ 0.25 µM)
Apis mellifera
  LD50: > 100 µg/piece
Oncorhynchus mykiss
  NOEC: 0.015 mg/L
Bird; acute, oral, unspecified, mortality
  LD50: > 2150 mg/kg
Bird; reproductive
  NOEC: 91.8 mg/kg
